assay: Human HepG2 cell viability assay in 384 well format; type: toxicity, cell-based; set-up: dose 125 nL, time 70.5 hour; cytotoxicity at 70.5 h: concentration not given beside the values; conditions: HepG2 cells, read-out: Inhibition

SMILES	cytotoxicity at 70.5 h
N#Cc1ccc(N2CCC(OC3CCOCC3)CC2)cc1Cl	1.95%
COc1ccc(Br)cc1CN(C)C(C)c1nc(C)no1 (configuration not stated)	-20.1%
CCN(CC)CCCC(C)NC(=O)c1ccccc1-n1cccn1 (configuration not stated)	-9.46%
CC(C)COc1ccccc1C(N)CC(C)C (configuration not stated)	-10.1%
CC(O)C1CCN(c2cc(Cl)ccc2C#N)CC1 (configuration not stated)	-14.2%
CCOCCC(=O)NCC(C)c1ccsc1 (configuration not stated)	-5.93%
N#CCCN(Cc1ccco1)C(=O)CCCc1ccccc1	-4.22%
CC(=O)N1CCC(C(=O)N2CCC(=Cc3cccc(F)c3)CC2)CC1	-11.3%
CCNC(=O)CS(=O)(=O)NC1CCC(C)CC1 (configuration not stated)	-14.8%
NC(=O)c1cnn2c1NCC(CNC1(c3ccccc3)CCC1)C2 (configuration not stated)	-9.04%
c1ncc2c(n1)CN(c1ncnc3[nH]ccc13)CC2	-4.47%
Cc1cccc(C(=O)NC(C(=O)NCc2ccc(O)nc2)C(C)C)c1 (configuration not stated)	-10.8%
Cc1nc(CCCNC(=O)Nc2ccc(F)cc2F)n[nH]1	-6.94%
CC(CCc1ccc(F)c(F)c1)NS(=O)(=O)Cc1ccon1 (configuration not stated)	20.5%
CCNC(=O)NC(c1ccc(C)cc1)c1cccc(S(C)(=O)=O)c1 (configuration not stated)	-11%
Cc1ccc(OCC(C)NS(=O)(=O)Cc2ccon2)cc1 (configuration not stated)	-9.91%
CC(C)N(C(=O)Cn1nc2n(c1=O)CCCCC2)C1CCC1	-9.98%
NC(=O)CCC1CCCN(c2ccc3ccc(F)cc3n2)C1 (configuration not stated)	-3.15%
Cc1ccn(CC(=O)NCCCOc2ccccc2F)c(=O)c1	-7.65%
Cc1nn(C)c(C)c1C(=O)NC(C)CC(=O)c1cccs1 (configuration not stated)	-11.1%
Cc1c(C(=O)NC(C)CC(=O)c2cccs2)cnn1C (configuration not stated)	19.6%
CC(c1cccnc1)N(C)C(=O)NCCOc1ccc(C#N)cc1 (configuration not stated)	-11.1%

SMILES	cytotoxicity at 70.5 h
CC(C)CC(NCc1ccsc1)c1ccccn1 (configuration not stated)	22.4%
CC(C)CC(NCc1cscn1)c1ccccn1 (configuration not stated)	-7.87%
N#Cc1ccccc1CN1CCC(CN2CCOCC2)C1 (configuration not stated)	-5.31%
Nc1nccnc1C(=O)NC1CCN(Cc2ccccc2)C1 (configuration not stated)	-10.2%
O=C(CCc1nnc(-c2ccsc2)o1)NCC1CCN(C2CC2)C1 (configuration not stated)	-4.06%
O=C(CCc1nc(-c2cccnc2)no1)NCC1CCN(C2CC2)C1 (configuration not stated)	-17.6%
Cc1nnc(CN(Cc2cccc3c2OCO3)CC2CCCO2)n1C (configuration not stated)	-19.6%
O=C(Cn1cnc2ccsc2c1=O)c1ccc2c(c1)OCCO2	-8.67%
NC(=O)CN(Cc1ncc(-c2ccc(F)cc2)o1)C1CCCC1	-14.2%
Cc1cccnc1NC(=O)c1ccc(F)c(S(=O)(=O)NC2CC2)c1	-2.44%
O=C(NCc1ccnc(OCC2CC2)c1)C1COc2ccccc2O1 (configuration not stated)	0.151%
CCc1cc(NCCCc2nc(C)no2)nc(-c2ccncc2)n1	-5.75%
NC(=O)CC1CCN(Cc2ccccc2OCC(F)(F)F)CC1	-8.22%
CCOc1cc(NC(=O)N2CCC3(CCOCC3)C2)ccc1C	-7.4%
CCc1cc(NCCCNS(C)(=O)=O)nc(-c2ccncc2)n1	-9.08%
CC(C)N(C)C(=O)C1CCN(Cc2cnc3ccccn23)CC1	-5.16%
Cc1csc(CCNC(=O)N2CCC(NC(=O)OC(C)(C)C)CC2)n1	-11.5%
Cc1csc(CCNC(=O)N2CCC(n3cccc3)CC2)n1	-7.68%
N#CC1(NC(=O)c2cc(Cl)ccc2OC(F)F)CCOCC1	-17.7%
CN(C(=O)C1CCN(Cc2cnc3ccccn23)CC1)c1ccccc1	-7.69%
COc1ncc(NCc2ccc(C#N)cc2)cc1C(N)=O	-4.6%
CN(CC(O)C(F)(F)F)C(=O)Nc1cccc(Cn2cccn2)c1 (configuration not stated)	-6.9%

SMILES	cytotoxicity at 70.5 h
COc1ncc(NCc2cc(C#N)cs2)cc1C(N)=O	-5.52%
COc1ncc(NCc2ccc(F)cc2)cc1C(N)=O	-6.54%
CN(CC(O)C(F)(F)F)C(=O)Nc1cccc(N2CCCC2)c1 (configuration not stated)	-3.73%
O=C(NCCc1nccs1)N1CCC(n2cccc2)CC1	-9.14%
NCC(CO)Cc1cccc(OC(F)(F)F)c1 (configuration not stated)	2.39%
NCC(CO)Cc1ccc(OC(F)(F)F)cc1 (configuration not stated)	-5.55%
CN(C)c1cc(CNC(=O)C2COc3ccccc3O2)ccn1 (configuration not stated)	-6.63%
CN(C(=O)c1ccc(Cl)cn1)c1ccccc1S(C)(=O)=O	-5.72%
Cc1oncc1NS(=O)(=O)c1c[nH]c2ncccc12	-3.88%
CCN(CC)CCSc1ncnc2[nH]ncc12	1.79%
CC(C)(C)C(=O)NCCNCc1ccc(Cl)c2cccnc12	-0.239%
CCOc1ccccc1N(C)C(=O)c1cscn1	0.806%
CCCN1Cc2ccccc2CC1C(=O)NC (configuration not stated)	-0.114%
CC(C)COc1cncc(NCC(O)c2ccco2)n1 (configuration not stated)	33.1%
Cc1nn(C)c(C)c1OCC(=O)NCC(O)c1ccccc1F (configuration not stated)	0.771%
CNC(=O)C1Cc2ccccc2CN1CCCc1ccccc1 (configuration not stated)	-4.46%
COc1ccc(C#N)cc1CSCCN1CCOCC1	-9.88%
N#Cc1ccc(CSCCN2CCOCC2)cc1	-5.15%
N#Cc1ccc(F)c(CSCCN2CCOCC2)c1	-7.03%
Cc1nc(C)n(CC2CCCCN2CCCC#N)n1 (configuration not stated)	6.75%
c1ccc(CCN2CCCC(c3noc(C4CC4)n3)C2)cc1 (configuration not stated)	-5.63%
CC(=O)N1CCC(C(=O)Nc2nc(C3CC3)cs2)CC1	-4.64%

SMILES	cytotoxicity at 70.5 h
Cc1cc(Br)oc1C(=O)N1CCCN(CC(N)=O)CC1	-7.35%
CCN(CC)C(C)CNC(=O)c1cccnc1Oc1cccnc1 (configuration not stated)	-5.14%
COc1ccc(C(CO)NC(=O)Nc2cccc(C(C)=O)c2)cc1 (configuration not stated)	-6.17%
COc1cc(C)nc(N2CCN(C(=O)CCc3ccsc3)CC2)n1	-4.26%
CCN1CCC(NC(=O)CN2CCCCC2Cn2cccn2)CC1 (configuration not stated)	-4.33%
NC(=O)CCn1ccc(NC(=O)c2ccc(Br)o2)n1	-5.23%
Cc1ccc(-c2nc(CN3CCOC(Cn4cncn4)C3)cs2)o1 (configuration not stated)	-6.85%
CNC(=O)CCN1CCN(C(C)c2ccc(Cl)cc2)CC1 (configuration not stated)	-6.21%
Cc1ccc(CNCCS(=O)(=O)N2CCOCC2)cc1C	-6.06%
CC(c1ccc(Cl)cc1)N1CCN(CCCS(N)(=O)=O)CC1 (configuration not stated)	35.8%
Cn1cc(C(=O)NCc2ccc(N3CCNC(=O)C3)c(F)c2)cn1	-4.04%
Cc1nc(C)n(CC2CCCCN2CCCS(N)(=O)=O)n1 (configuration not stated)	-5.16%
Cc1cc(C)n(CC2CCCCN2CCCS(=O)(=O)N(C)C)n1 (configuration not stated)	1.93%
CCOC(C)c1nc(CN2CCN(CC(F)F)CC2)cs1 (configuration not stated)	-5.97%
N#Cc1cccc(OCCN2CCCC(c3noc(C4CC4)n3)C2)c1 (configuration not stated)	-5.39%
Cc1cccc(NC(=O)NCC2(N3CCOCC3)CCSC2)c1 (configuration not stated)	3.35%
CC1CCN(CCNC(=O)Nc2ccc(F)cc2Cl)CC1	9.06%
CCC(CNC(=O)c1ccc(F)cc1F)N1CCc2ccccc2C1 (configuration not stated)	-7.79%
CCC(CNC(=O)c1cncc(Br)c1)N1CCc2ccccc2C1 (configuration not stated)	-5.93%
Cc1csc(CNC(=O)NCC(O)c2ccc(F)cc2F)n1 (configuration not stated)	5.96%
NC1CCN(C(=O)c2c(F)cccc2Br)CC1	-15.6%
